Results taken from the supplement of paper PMC10307832.

Columns and labels:
Assay in all cases: relative viability (nuclei count vs DMSO), 5 days (fraction); higher = more cells survive
Idelalisib + OSI-027 = compound: CC[C@H](Nc1ncnc2[nH]cnc12)c1nc2cccc(F)c2c(=O)n1-c1ccccc1 [Idelalisib] + COc1cccc2cc(-c3nc([C@H]4CC[C@H](C(=O)O)CC4)n4ncnc(N)c34)[nH]c12 [OSI-027] (partner 0.5 µM)
Method in brief: (§1)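 Dosing by pin tool came one day after lung cancer cell lines were seeded in 1536-well plates, using either one drug or a fixed anchor-drug dose plus five library-drug doses (not always all listed) in √10 steps. After 5 days, nuclei were counted on 4× images. Relative viability is treated-well nuclei count divided by vehicle-well nuclei count, and values are medians of duplicate plates.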

Pemetrexed + Palbociclib = compound: Nc1nc2[nH]cc(CCc3ccc(C(=O)N[C@@H](CCC(=O)O)C(=O)O)cc3)c2c(=O)[nH]1 [Pemetrexed] + CC(=O)c1c(C)c2cnc(Nc3ccc(N4CCNCC4)cn3)nc2n(C2CCCC2)c1=O [Palbociclib] (partner 0.5 µM)
Method in brief: as §1

Pemetrexed + Luminespib = compound: Nc1nc2[nH]cc(CCc3ccc(C(=O)N[C@@H](CCC(=O)O)C(=O)O)cc3)c2c(=O)[nH]1 [Pemetrexed] + CCNC(=O)c1noc(-c2cc(C(C)C)c(O)cc2O)c1-c1ccc(CN2CCOCC2)cc1 [Luminespib] (partner 0.01 µM)
Method in brief: as §1

Idelalisib + Trametinib = compound: CC[C@H](Nc1ncnc2[nH]cnc12)c1nc2cccc(F)c2c(=O)n1-c1ccccc1 [Idelalisib] + CC(=O)Nc1cccc(-n2c(=O)n(C3CC3)c(=O)c3c(Nc4ccc(I)cc4F)n(C)c(=O)c(C)c32)c1 [Trametinib] (partner 0.02 µM)
Method in brief: as §1

Cell Line	relative viability (Idelalisib + OSI-027; first compound 0.04 µM)	relative viability (Idelalisib + OSI-027; first compound 0.1265 µM)	relative viability (Idelalisib + OSI-027; first compound 0.4 µM)	relative viability (Idelalisib + OSI-027; first compound 1.265 µM)	relative viability (Idelalisib + OSI-027; first compound 4 µM)	relative viability (Pemetrexed + Palbociclib; first compound 0.002 µM)	relative viability (Pemetrexed + Palbociclib; first compound 0.006325 µM)	relative viability (Pemetrexed + Palbociclib; first compound 0.02 µM)	relative viability (Pemetrexed + Palbociclib; first compound 0.06325 µM)	relative viability (Pemetrexed + Palbociclib; first compound 0.2 µM)	relative viability (Pemetrexed + Luminespib; first compound 0.002 µM)	relative viability (Pemetrexed + Luminespib; first compound 0.006325 µM)	relative viability (Pemetrexed + Luminespib; first compound 0.02 µM)	relative viability (Pemetrexed + Luminespib; first compound 0.06325 µM)	relative viability (Pemetrexed + Luminespib; first compound 0.2 µM)	relative viability (Idelalisib + Trametinib; first compound 0.04 µM)	relative viability (Idelalisib + Trametinib; first compound 0.1265 µM)	relative viability (Idelalisib + Trametinib; first compound 0.4 µM)	relative viability (Idelalisib + Trametinib; first compound 1.265 µM)	relative viability (Idelalisib + Trametinib; first compound 4 µM)
H3255	0.721	0.566	0.558	0.517	0.534	0.351	0.319	0.312	0.31	0.328	0.714	0.799	0.93	0.852	0.844	0.602	0.57	0.471	0.577	0.527
NCI-H2126	0.67	0.678	0.462	0.732	0.704	0.363	0.327	0.409	0.339	0.359	0.827	0.96	0.89	0.883	0.831	0.602	0.602	0.542	0.575	0.485
LU99A	0.302	0.322	0.242	0.298	0.305	0.409	0.389	0.407	0.397	0.407	0.264	0.233	0.318	0.261	0.19	0.6	0.539	0.546	0.542	0.502
HOP-62	0.775	0.879	0.719	0.888	0.767	0.363	0.479	0.555	0.452	0.37	0.85	0.936	0.851	0.814	0.932	0.345	0.354	0.292	0.362	0.247
HCC-15	0.702	0.754	0.509	0.869	0.668	0.661	0.712	0.717	0.669	0.309	0.454	0.391	0.475	0.406	0.23	0.379	0.29	0.315	0.356	0.332
HARA	0.618	0.466	0.296	0.374	0.441	0.241	0.277	0.228	0.231	0.234	0.554	0.751	1.19	0.855	0.165	0.78	0.773		0.593	0.671
SK-MES-1	0.666	0.611	0.427	0.218	0.467	0.316	0.305	0.353	0.33	0.327	0.649	0.56	0.965	0.688	0.773	0.497	0.482	0.426	0.477	0.353
NCI-H1355	0.401	0.476	0.273	0.401	0.366	0.372	0.391	0.391	0.413	0.402	0.737	0.662	0.656	0.693	0.715	0.305	0.38	0.41	0.467	0.284
NCI-H727	0.749	0.708	0.45	0.562	0.52	0.721	0.692	0.638	0.633	0.613		0.255	0.346	0.689	0.506	0.423	0.457	0.34	0.394	0.387
NCI-H520	0.287	0.265	0.186	0.206	0.179	0.225	0.238	0.271	0.243	0.248	0.215	0.234	0.223	0.261	0.2	0.793	0.566	0.479	0.628	0.613
NCI-H838	0.416	0.346	0.271	0.453	0.317	0.219	0.223	0.28	0.252	0.173	0.234	0.246	0.309	0.197	0.156	0.53	0.551	0.432	0.511	0.372
HCC-44	0.474	0.54	0.437	0.604	0.5	0.909	0.95	0.934	0.972	0.99	1.08	1.03	1.09	0.918	0.666	1.07	1.04	1.08	1.06	0.941
LK-2	0.219	0.223		0.198	0.183	0.751	0.758	0.721	0.464	0.366	0.179	0.181	0.187	0.165	0.208	0.87	0.651	0.503	0.588	0.704
HCC-827	0.928	0.738	0.759	0.698	0.659	0.386	0.413	0.529	0.44	0.327	0.541	0.633	0.856	0.724	0.382	0.578	0.517	0.473	0.476	0.424
SW 1573	0.625	0.656	0.518	0.492	0.531	0.352	0.423	0.435	0.413	0.235	0.285	0.443	0.249	0.125	0.176	0.688	0.468	0.477	0.506	0.383
NCI-H2023	0.473	0.339	0.285	0.278	0.313	0.347	0.387	0.384	0.323	0.125	0.717	0.656	0.932	0.483	0.227	0.487	0.533	0.49	0.537	0.37

Cell Line	relative viability (Idelalisib + OSI-027; first compound 0.04 µM)	relative viability (Idelalisib + OSI-027; first compound 0.1265 µM)	relative viability (Idelalisib + OSI-027; first compound 0.4 µM)	relative viability (Idelalisib + OSI-027; first compound 1.265 µM)	relative viability (Idelalisib + OSI-027; first compound 4 µM)	relative viability (Pemetrexed + Palbociclib; first compound 0.002 µM)	relative viability (Pemetrexed + Palbociclib; first compound 0.006325 µM)	relative viability (Pemetrexed + Palbociclib; first compound 0.02 µM)	relative viability (Pemetrexed + Palbociclib; first compound 0.06325 µM)	relative viability (Pemetrexed + Palbociclib; first compound 0.2 µM)	relative viability (Pemetrexed + Luminespib; first compound 0.002 µM)	relative viability (Pemetrexed + Luminespib; first compound 0.006325 µM)	relative viability (Pemetrexed + Luminespib; first compound 0.02 µM)	relative viability (Pemetrexed + Luminespib; first compound 0.06325 µM)	relative viability (Pemetrexed + Luminespib; first compound 0.2 µM)	relative viability (Idelalisib + Trametinib; first compound 0.04 µM)	relative viability (Idelalisib + Trametinib; first compound 0.1265 µM)	relative viability (Idelalisib + Trametinib; first compound 0.4 µM)	relative viability (Idelalisib + Trametinib; first compound 1.265 µM)	relative viability (Idelalisib + Trametinib; first compound 4 µM)
EPLC-272H	0.304	0.296	0.271	0.294	0.274	0.355	0.331	0.356	0.332	0.303	0.265	0.153	0.27	0.321	0.536	0.311	0.291	0.254	0.257	0.216
SK-LU-1	0.383	0.39	0.27	0.369	0.272	0.54	0.379	0.391	0.413	0.375	0.195	0.2	0.187	0.2	0.21	0.422	0.467	0.394	0.492	0.414
NCI-H358	0.773	0.875	0.554	0.695	0.72	0.149	0.111	0.14	0.134	0.137	0.268	0.368	0.227	0.367	0.146	0.191	0.146	0.149	0.129	0.148
NCI-H1395	0.713	0.639	0.621	0.561	0.454	0.61	0.599	0.675	0.625	0.599	0.8	0.718	0.678	0.528	0.758	1.12	1	0.965	1.07	0.844
NCI-H2085	0.738	1.01	0.521	0.725	0.325	0.457	0.458	0.495	0.471	0.464	0.386	0.304	0.449	0.414	0.427	0.569	0.299	0.382	0.369	0.327
NCI-H2087	0.593	0.513	0.324	0.633	0.319	0.161	0.221	0.245	0.217	0.214	0.206	0.204	0.243	0.152	0.136	0.206	0.23	0.204	0.205	0.156
NCI-H322M	0.612	0.546	0.463	0.539	0.511	0.465	0.458	0.494	0.509	0.462	0.987	0.767	0.853	0.84	0.752	0.58	0.57	0.479	0.505	0.537
NCI-H1734	0.659	0.593	0.404	0.579	0.537	0.192	0.358	0.366	0.333	0.346	0.208	0.192	0.219	0.206	0.218	0.696	0.697	0.546	0.69	0.556
NCI-H2228	0.687	0.725	0.453	0.637	0.597	0.579	0.755	0.746	0.341	0.268	0.18		0.153	0.115	0.124	0.49	0.684	0.429	0.583	0.381
EKVX	0.705	0.709	0.527	0.557	0.586	0.386	0.365	0.407	0.399	0.284	0.968	0.876	0.977	0.816	0.784	0.332	0.406	0.352	0.334	0.278
NCI-H1975	0.819	0.764	0.61	0.917	0.429	0.306	0.562	0.606	0.375	0.237	0.169	0.295	0.177	0.195	0.169	0.328	0.382	0.37	0.375	0.288
NCI-H2170	0.722	0.793	0.637	0.609	0.649	0.371	0.396	0.435	0.416	0.378	0.684	0.861	0.709	0.749	0.583	1.05	0.941	0.851	0.893	0.805
NCI-H1666	0.889	0.895	0.782	0.83	0.759	0.666	0.647	0.704	0.674	0.623	1	0.942	1.01	1.01	0.839	0.806	0.931	0.815	0.803	0.831
PC-3 [JPC-3]	0.712	0.747	0.639	0.694	0.571	0.483	0.54	0.536	0.578	0.503	0.678	0.79	0.702	0.715	0.758	0.721	0.69	0.724	0.607	0.496
NCI-H1755	0.69	0.687	0.584	0.675	0.573	0.488	0.423	0.478	0.448	0.412	0.421	0.594	0.631	0.415	0.437	0.764	0.773	0.745	0.674	0.732
RERF-LC-KJ	0.632	0.563	0.436	0.502	0.516	0.877	1.08	1.14	0.976	0.773	1.39	1.28	1.38	1.21	0.831	0.84	0.912	0.804	0.936	0.66
